Source: patent US11780823B2, “Indazole-3-carboxamides and their use as Wnt/β-catenin signaling pathway inhibitors” (BioSplice Therapeutics, Inc., priority 2011, dated 2023)
pIC50: −log10 of the molar value.

System: Wnt activity (wnt-responsive SP5 promoter luciferase reporter in SW480 cells)
Test: Wnt reporter screening assay: SP5 promoter-driven firefly luciferase in SW480 cells
Type: cell-based
Settings: Homo sapiens; SW480 colon cancer cells with SP5 promoter luciferase reporter; half-log dilutions, ten micromolar top concentration; read 24-40 h after compound addition; normalized to DMSO; read-out: Wnt inhibition
Excerpt: Another screening assay for Wnt activity is described as follows. Reporter cell lines can be generated by stably transducing cells of cancer cell lines (e.g., colon cancer) with a lentiviral construct that include a wnt-responsive promoter driving expression of the firefly luciferase gene.
Lentiviral constructs can be made in which the SP5 promoter, a promoter having eight TCF/LEF binding sites derived from the SP5 promoter, is linked upstream of the firefly luciferase gene. The lentiviral constructs can also include a hygromycin resistance gene as a selectable marker. The SP5 promoter construct can be used to transduce SW480 cells, a colon cancer cell line having a mutated APC gene that generates a truncated APC protein, leading to de-regulated accumulation of β-catenin.
Cultured SW480 cells bearing a reporter construct can be distributed at approximately 10,000 cells per well into 96 well or 384 well plates. Compounds from a small molecule compound library can then be added to the wells in half-log dilutions using a ten micromolar top concentration. A series of control wells for each cell type receive only buffer and compound solvent. Twenty-four to forty hours after the addition of compound, reporter activity for luciferase can be assayed, for example, by addition of the BrightGlo luminescence reagent (Promega) and the Victor3 plate reader (Perkin Elmer). Readings can be normalized to DMSO only treated cells, and normalized activities can then be used in the IC50 calculations.

`CCOc1ccc(NC(=O)c2n[nH]c3ccc(-c4cncc(CN5CCCC5)c4)cc23)cn1` [Compound 44, N-(6-Ethoxypyridin-3-yl)-5-(5-(pyrrolidin-1-ylmethyl)pyridin-3-yl)-1H-indazole-3-carboxamide] showed a pIC50 of 6.80.

With `CCOc1ccc(NC(=O)c2n[nH]c3ccc(-c4cncc(CN5CCCCC5)c4)cc23)cn1` [Compound 45, N-(6-Ethoxypyridin-3-yl)-5-(5-(piperidin-1-ylmethyl)pyridin-3-yl)-1H-indazole-3-carboxamide] the pIC50 was 6.96.

Work on `O=C(Nc1cccnc1)c1n[nH]c2ccc(-c3cncc(CN4CCCCC4)c3)cc12` [Compound 46, 5-(5-(Piperidin-1-ylmethyl)pyridin-3-yl)-N-(pyridin-3-yl)-1H-indazole-3-carboxamide] yielded a pIC50 of 7.82.

Compound `O=C(Nc1cnccc1C(F)(F)F)c1n[nH]c2ccc(-c3cncc(CN4CCCCC4)c3)cc12` [Compound 47, 5-(5-(Piperidin-1-ylmethyl)pyridin-3-yl)-N-(4-(trifluoromethyl)pyridin-3-yl)-1H-indazole-3-carboxamide] has a pIC50 of 7.15.

In the case of `O=C(Nc1cnccc1C(F)(F)F)c1n[nH]c2ccc(-c3cccnc3)cc12` [Compound 48, 5-(Pyridin-3-yl)-N-(4-(trifluoromethyl)pyridin-3-yl)-1H-indazole-3-carboxamide], the pIC50 was ≤ 5.00.

In the case of `O=C(Nc1cccnc1)c1n[nH]c2ccc(-c3cccc(CN4CCCC4)c3)cc12` [Compound 49, N-(Pyridin-3-yl)-5-(3-(pyrrolidin-1-ylmethyl)phenyl)-1H-indazole-3-carboxamide], the pIC50 was 7.24.

For `O=C(Nc1ccc(-c2ccccc2)nc1)c1n[nH]c2ccc(-c3cncc(CN4CCCC4)c3)cc12` [Compound 50, N-(6-Phenylpyridin-3-yl)-5-(5-(pyrrolidin-1-ylmethyl)pyridin-3-yl)-1H-indazole-3-carboxamide], the pIC50 was 7.15.

Work on `O=C(Nc1cccnc1)c1n[nH]c2ccc(-c3ccc(N4CCCC4)nc3)cc12` [Compound 51, N-(Pyridin-3-yl)-5-(6-(pyrrolidin-1-yl)pyridin-3-yl)-1H-indazole-3-carboxamide] yielded a pIC50 of 7.59.

`N#Cc1ccc(NC(=O)c2n[nH]c3ccc(-c4cncc(CN5CCCC5)c4)cc23)cn1` [Compound 52, N-(6-Cyanopyridin-3-yl)-5-(5-(pyrrolidin-1-ylmethyl)pyridin-3-yl)-1H-indazole-3-carboxamide] was tested, and the pIC50 was 7.24.

`O=C(Nc1ccc(N2CCCC2)nc1)c1n[nH]c2ccc(-c3cccnc3)cc12` [Compound 53, 5-(Pyridin-3-yl)-N-(6-(pyrrolidin-1-yl)pyridin-3-yl)-1H-indazole-3-carboxamide] was tested, and the pIC50 was 7.20.

In the case of `COc1ccc(-c2ccc3[nH]nc(C(=O)Nc4cccnc4)c3c2)cn1` [Compound 54, 5-(6-Methoxypyridin-3-yl)-N-(pyridin-3-yl)-1H-indazole-3-carboxamide], the pIC50 was 6.80.

`O=C(Nc1cccnc1)c1n[nH]c2ccc(-c3cncc(Cc4ccccc4)c3)cc12` [Compound 55, 5-(5-Benzylpyridin-3-yl)-N-(pyridin-3-yl)-1H-indazole-3-carboxamide] showed a pIC50 of 7.36.

`O=C(Nc1cccnc1)c1n[nH]c2ccc(-c3cncc(Oc4ccccc4)c3)cc12` [Compound 56, 5-(5-Phenoxypyridin-3-yl)-N-(pyridin-3-yl)-1H-indazole-3-carboxamide] showed a pIC50 of 6.80.

`O=C(Nc1cnccc1C(F)(F)F)c1n[nH]c2ccc(-c3cncc(CN4CCCC4)c3)cc12` [Compound 57, 5-(5-(Pyrrolidin-1-ylmethyl)pyridin-3-yl)-N-(4-(trifluoromethyl)pyridin-3-yl)-1H-indazole-3-carboxamide] was tested, and the pIC50 was ≤ 5.00.

`O=C(Nc1cnccc1NC(=O)C1CC1)c1n[nH]c2ccc(-c3cccnc3)cc12` [Compound 58, N-(4-(Cyclopropanecarboxamido)pyridin-3-yl)-5-(pyridin-3-yl)-1H-indazole-3-carboxamide] showed a pIC50 of 7.15.

With `O=C(NC1CCCCC1)c1cncc(-c2ccc3[nH]nc(C(=O)Nc4cccnc4)c3c2)c1` [Compound 59, 5-(5-(Cyclohexylcarbamoyl)pyridin-3-yl)-N-(pyridin-3-yl)-1H-indazole-3-carboxamide] the pIC50 was 5.51.

In the case of `CN1CCN(Cc2cc(F)cc(-c3ccc4[nH]nc(C(=O)Nc5cnccc5C(F)(F)F)c4c3)c2)CC1` [Compound 60, 5-(3-Fluoro-5-((4-methylpiperazin-1-yl)methyl)phenyl)-N-(4-(trifluoromethyl)pyridin-3-yl)-1H-indazole-3-carboxamide], the pIC50 was ≤ 5.00.

`CN1CCN(Cc2cncc(-c3ccc4[nH]nc(C(=O)Nc5cccnc5)c4c3)c2)CC1` [Compound 61, 5-(5-((4-Methylpiperazin-1-yl)methyl)pyridin-3-yl)-N-(pyridin-3-yl)-1H-indazole-3-carboxamide] gave a pIC50 of 6.62.

Work on `N#Cc1ccc(NC(=O)c2n[nH]c3ccc(-c4cncc(CN5CCCCC5)c4)cc23)cn1` [Compound 62, N-(6-cyanopyridin-3-yl)-5-(5-(piperidin-1-ylmethyl)pyridin-3-yl)-1H-indazole-3-carboxamide] yielded a pIC50 of 7.80.

`O=C(Nc1ccc(C(F)(F)F)nc1)c1n[nH]c2ccc(-c3cncc(CN4CCCCC4)c3)cc12` [Compound 63, 5-(5-(Piperidin-1-ylmethyl)pyridin-3-yl)-N-(6-(trifluoromethyl)pyridin-3-yl)-1H-indazole-3-carboxamide] was tested, and the pIC50 was 7.00.

`O=C(Nc1cccnc1)c1n[nH]c2ccc(-c3cncc(CN4CCOCC4)c3)cc12` [Compound 64, 5-(5-(Morpholinomethyl)pyridin-3-yl)-N-(pyridin-3-yl)-1H-indazole-3-carboxamide] showed a pIC50 of 8.22.

`O=C(Nc1ccc(-c2ccccc2)nc1)c1n[nH]c2ccc(-c3cncc(CN4CCCCC4)c3)cc12` [Compound 65, N-(6-Phenylpyridin-3-yl)-5-(5-(piperidin-1-ylmethyl)pyridin-3-yl)-1H-indazole-3-carboxamide] gave a pIC50 of 7.00.

`N#Cc1cncc(-c2ccc3[nH]nc(C(=O)Nc4cccnc4)c3c2)c1` [Compound 66, 5-(5-Cyanopyridin-3-yl)-N-(pyridin-3-yl)-1H-indazole-3-carboxamide] was tested, and the pIC50 was ≤ 5.00.

In the case of `O=C(Nc1cccnc1)c1n[nH]c2ccc(-c3cc(F)cc(CN4CCCCC4)c3)cc12` [Compound 67, 5-(3-Fluoro-5-(piperidin-1-ylmethyl)phenyl)-N-(pyridin-3-yl)-1H-indazole-3-carboxamide], the pIC50 was ≤ 5.00.

Compound `O=C(Nc1ccc(C(F)(F)F)nc1)c1n[nH]c2ccc(-c3cncc(CN4CCOCC4)c3)cc12` [Compound 68, 5-(5-(Morpholinomethyl)pyridin-3-yl)-N-(6-(trifluoromethyl)pyridin-3-yl)-1H-indazole-3-carboxamide] has a pIC50 of 7.32.

`O=C(Nc1ccc(N2CCOCC2)nc1)c1n[nH]c2ccc(-c3cncc(CN4CCCCC4)c3)cc12` [Compound 69, N-(6-Morpholinopyridin-3-yl)-5-(5-(piperidin-1-ylmethyl)pyridin-3-yl)-1H-indazole-3-carboxamide] showed a pIC50 of 7.30.

Work on `CN1CCN(c2ccc(NC(=O)c3n[nH]c4ccc(-c5cncc(CN6CCCCC6)c5)cc34)cn2)CC1` [Compound 70, N-(6-(4-Methylpiperazin-1-yl)pyridin-3-yl)-5-(5-(piperidin-1-ylmethyl)pyridin-3-yl)-1H-indazole-3-carboxamide] yielded a pIC50 of 7.39.

For `O=C(Nc1ccc(N2CCCC2)nc1)c1n[nH]c2ccc(-c3cncc(CN4CCCCC4)c3)cc12` [Compound 71, 5-(5-(Piperidin-1-ylmethyl)pyridin-3-yl)-N-(6-(pyrrolidin-1-yl)pyridin-3-yl)-1H-indazole-3-carboxamide], the pIC50 was 7.60.

`O=C(Nc1ccc(-c2cccc(F)c2)nc1)c1n[nH]c2ccc(-c3cncc(CN4CCCCC4)c3)cc12` [Compound 72, N-(6-(3-Fluorophenyl)pyridin-3-yl)-5-(5-(piperidin-1-ylmethyl)pyridin-3-yl)-1H-indazole-3-carboxamide] gave a pIC50 of 6.67.

For `O=C(Nc1ccc(-c2ccc(F)cc2)nc1)c1n[nH]c2ccc(-c3cncc(CN4CCCCC4)c3)cc12` [Compound 73, N-(6-(4-Fluorophenyl)pyridin-3-yl)-5-(5-(piperidin-1-ylmethyl)pyridin-3-yl)-1H-indazole-3-carboxamide], the pIC50 was 6.49.

`CN(C)CCN(C)c1ccc(NC(=O)c2n[nH]c3ccc(-c4cncc(CN5CCCCC5)c4)cc23)cn1` [Compound 74, N-(6-((2-(Dimethylamino)ethyl)(methyl)amino)pyridin-3-yl)-5-(5-(piperidin-1-ylmethyl)pyridin-3-yl)-1H-indazole-3-carboxamide] showed a pIC50 of 7.19.

`O=C(Nc1ccnnc1)c1n[nH]c2ccc(-c3cncc(CN4CCCCC4)c3)cc12` [Compound 75, 5-(5-(Piperidin-1-ylmethyl)pyridin-3-yl)-N-(pyridazin-4-yl)-1H-indazole-3-carboxamide] was tested, and the pIC50 was 7.40.

`O=C(NCc1cccnc1)c1n[nH]c2ccc(-c3cncc(CN4CCCCC4)c3)cc12` [Compound 76, 5-(5-(Piperidin-1-ylmethyl)pyridin-3-yl)-N-(pyridin-3-ylmethyl)-1H-indazole-3-carboxamide] was tested, and the pIC50 was 6.07.

Compound `O=C(NC1CCCCC1)c1n[nH]c2ccc(-c3cncc(CN4CCCCC4)c3)cc12` [Compound 77, N-Cyclohexyl-5-(5-(piperidin-1-ylmethyl)pyridin-3-yl)-1H-indazole-3-carboxamide] has a pIC50 of 5.58.
